{"source": "patent US20130158007A1", "about": "(KEMPHARM, INC., priority 2010, published 2013)", "key": {"α1B-adrenergic receptor": {"molecular_target": "T1, α1B-adrenergic receptor (Homo sapiens, UniProt P35368)", "T1 sequence (P35368 1-520)": "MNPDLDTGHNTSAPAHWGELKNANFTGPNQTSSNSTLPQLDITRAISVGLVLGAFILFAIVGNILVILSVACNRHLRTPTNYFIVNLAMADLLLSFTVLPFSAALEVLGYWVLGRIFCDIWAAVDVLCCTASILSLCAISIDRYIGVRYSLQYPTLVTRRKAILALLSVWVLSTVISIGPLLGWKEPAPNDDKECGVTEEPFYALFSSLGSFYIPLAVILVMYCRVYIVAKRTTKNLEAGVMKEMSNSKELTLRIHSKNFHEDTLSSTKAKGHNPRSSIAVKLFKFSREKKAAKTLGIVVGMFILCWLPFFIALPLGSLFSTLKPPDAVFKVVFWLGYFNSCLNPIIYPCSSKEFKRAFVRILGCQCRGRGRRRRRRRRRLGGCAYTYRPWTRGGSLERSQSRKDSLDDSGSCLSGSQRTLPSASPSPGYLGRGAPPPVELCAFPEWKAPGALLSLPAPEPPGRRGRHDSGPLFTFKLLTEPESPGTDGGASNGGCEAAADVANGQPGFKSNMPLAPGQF", "conditions": "cited from earlier work"}, "M1 muscarinic receptor": {"molecular_target": "T2, M1 muscarinic receptor (Homo sapiens, UniProt P11229)", "T2 sequence (P11229 1-460)": "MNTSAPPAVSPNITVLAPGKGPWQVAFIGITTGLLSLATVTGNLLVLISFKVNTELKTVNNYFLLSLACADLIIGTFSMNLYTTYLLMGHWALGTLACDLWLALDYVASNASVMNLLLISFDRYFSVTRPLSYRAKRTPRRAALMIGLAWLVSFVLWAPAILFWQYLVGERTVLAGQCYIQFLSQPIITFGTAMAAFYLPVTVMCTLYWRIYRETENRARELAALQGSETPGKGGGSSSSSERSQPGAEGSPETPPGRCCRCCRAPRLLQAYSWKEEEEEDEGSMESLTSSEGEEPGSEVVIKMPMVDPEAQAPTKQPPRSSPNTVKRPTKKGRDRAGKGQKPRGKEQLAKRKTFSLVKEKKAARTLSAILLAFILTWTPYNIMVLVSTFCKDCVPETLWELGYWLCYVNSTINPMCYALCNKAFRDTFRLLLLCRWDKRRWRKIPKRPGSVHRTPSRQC", "conditions": "cited from earlier work"}, "5-HT1A receptor": {"molecular_target": "T3, 5-HT1A receptor (Homo sapiens, UniProt P08908)", "T3 sequence (P08908 1-422)": "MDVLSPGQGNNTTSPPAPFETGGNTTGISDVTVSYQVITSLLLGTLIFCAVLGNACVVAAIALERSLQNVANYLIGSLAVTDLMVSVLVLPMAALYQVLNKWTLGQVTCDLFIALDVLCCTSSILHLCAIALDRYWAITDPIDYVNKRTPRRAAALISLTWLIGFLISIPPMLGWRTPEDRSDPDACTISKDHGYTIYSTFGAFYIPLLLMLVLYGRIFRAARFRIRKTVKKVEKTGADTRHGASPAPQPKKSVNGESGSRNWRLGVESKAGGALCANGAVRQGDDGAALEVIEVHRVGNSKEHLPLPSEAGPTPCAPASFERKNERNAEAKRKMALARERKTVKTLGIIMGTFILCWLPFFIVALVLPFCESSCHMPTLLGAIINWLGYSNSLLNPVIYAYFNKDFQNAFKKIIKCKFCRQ", "conditions": "relative to quetiapine; cited from earlier work"}, "[1]": {"molecular_target": "serotonin 5-HT2B receptor (Homo sapiens, UniProt P41595)", "sequence (P41595 whole entry)": "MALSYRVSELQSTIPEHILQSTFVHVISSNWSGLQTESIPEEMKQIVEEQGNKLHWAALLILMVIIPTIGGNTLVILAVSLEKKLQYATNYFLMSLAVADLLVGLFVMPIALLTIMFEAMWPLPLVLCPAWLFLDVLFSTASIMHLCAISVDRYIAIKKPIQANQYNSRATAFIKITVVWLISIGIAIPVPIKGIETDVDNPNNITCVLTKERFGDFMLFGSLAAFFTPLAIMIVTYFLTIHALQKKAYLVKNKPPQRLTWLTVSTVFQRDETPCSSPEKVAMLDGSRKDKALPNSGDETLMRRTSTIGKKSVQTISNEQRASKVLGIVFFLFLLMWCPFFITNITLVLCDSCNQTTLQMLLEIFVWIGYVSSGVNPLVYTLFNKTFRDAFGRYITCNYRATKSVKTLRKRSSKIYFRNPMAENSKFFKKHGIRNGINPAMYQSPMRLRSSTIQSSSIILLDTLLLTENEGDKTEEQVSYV", "conditions": "cited from earlier work"}, "M5 muscarinic receptor": {"molecular_target": "T4, M5 muscarinic receptor (Homo sapiens, UniProt P08912)", "T4 sequence (P08912 1-532)": "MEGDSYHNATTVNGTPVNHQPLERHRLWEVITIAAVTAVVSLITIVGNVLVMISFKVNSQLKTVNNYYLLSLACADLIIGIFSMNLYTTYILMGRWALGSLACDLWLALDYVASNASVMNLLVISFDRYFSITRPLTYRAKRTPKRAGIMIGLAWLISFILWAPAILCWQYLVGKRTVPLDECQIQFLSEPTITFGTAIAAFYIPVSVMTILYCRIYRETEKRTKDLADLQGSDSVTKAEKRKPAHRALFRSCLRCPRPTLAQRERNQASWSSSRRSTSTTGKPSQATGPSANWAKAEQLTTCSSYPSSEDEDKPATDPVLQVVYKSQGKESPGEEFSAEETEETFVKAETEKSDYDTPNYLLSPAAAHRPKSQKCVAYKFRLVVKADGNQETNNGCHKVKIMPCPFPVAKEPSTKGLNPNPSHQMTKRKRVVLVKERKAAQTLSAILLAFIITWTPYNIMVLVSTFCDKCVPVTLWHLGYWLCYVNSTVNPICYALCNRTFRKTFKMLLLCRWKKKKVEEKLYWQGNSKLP", "conditions": "cited from earlier work"}, "serotonin 5-HT7 receptor": {"molecular_target": "serotonin 5-HT7 receptor (Homo sapiens, UniProt P34969)", "sequence (P34969 whole entry)": "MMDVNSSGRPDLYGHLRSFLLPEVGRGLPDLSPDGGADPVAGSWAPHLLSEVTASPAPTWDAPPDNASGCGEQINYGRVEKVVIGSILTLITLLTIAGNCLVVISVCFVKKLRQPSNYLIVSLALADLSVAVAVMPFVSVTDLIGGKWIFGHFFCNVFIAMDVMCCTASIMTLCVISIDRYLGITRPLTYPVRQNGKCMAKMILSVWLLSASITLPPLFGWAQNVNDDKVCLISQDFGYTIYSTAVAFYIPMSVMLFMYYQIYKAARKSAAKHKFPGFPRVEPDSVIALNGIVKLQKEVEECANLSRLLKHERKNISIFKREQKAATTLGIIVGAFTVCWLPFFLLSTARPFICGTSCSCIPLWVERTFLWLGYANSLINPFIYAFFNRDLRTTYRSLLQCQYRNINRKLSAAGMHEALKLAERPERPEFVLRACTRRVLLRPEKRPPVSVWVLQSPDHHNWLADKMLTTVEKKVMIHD", "conditions": "cited from earlier work"}, "[2]": {"molecular_target": "T5, serotonin 5-HT1A receptor (Homo sapiens, UniProt P08908)", "T5 sequence (P08908 1-422)": "T3 sequence (P08908 1-422)", "conditions": "cited from earlier work"}, "histamine H1 receptor": {"molecular_target": "histamine H1 receptor (Homo sapiens, UniProt P35367)", "sequence (P35367 whole entry, species assumed)": "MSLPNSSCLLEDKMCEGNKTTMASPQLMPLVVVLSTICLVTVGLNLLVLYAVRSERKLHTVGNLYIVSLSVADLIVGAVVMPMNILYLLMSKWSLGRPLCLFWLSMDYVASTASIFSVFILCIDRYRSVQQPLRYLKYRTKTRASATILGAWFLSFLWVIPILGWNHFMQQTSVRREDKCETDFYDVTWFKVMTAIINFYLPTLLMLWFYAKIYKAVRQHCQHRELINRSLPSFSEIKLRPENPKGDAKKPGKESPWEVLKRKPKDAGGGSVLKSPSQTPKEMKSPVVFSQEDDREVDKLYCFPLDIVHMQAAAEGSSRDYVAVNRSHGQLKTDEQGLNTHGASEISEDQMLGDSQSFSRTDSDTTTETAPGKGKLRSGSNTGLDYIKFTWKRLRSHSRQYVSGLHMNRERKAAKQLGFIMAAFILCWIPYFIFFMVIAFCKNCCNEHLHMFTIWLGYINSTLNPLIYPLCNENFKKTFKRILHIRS", "conditions": "cited from earlier work"}, "M3 muscarinic receptor": {"molecular_target": "M3 muscarinic receptor (Homo sapiens, UniProt P20309)", "sequence (P20309 whole entry)": "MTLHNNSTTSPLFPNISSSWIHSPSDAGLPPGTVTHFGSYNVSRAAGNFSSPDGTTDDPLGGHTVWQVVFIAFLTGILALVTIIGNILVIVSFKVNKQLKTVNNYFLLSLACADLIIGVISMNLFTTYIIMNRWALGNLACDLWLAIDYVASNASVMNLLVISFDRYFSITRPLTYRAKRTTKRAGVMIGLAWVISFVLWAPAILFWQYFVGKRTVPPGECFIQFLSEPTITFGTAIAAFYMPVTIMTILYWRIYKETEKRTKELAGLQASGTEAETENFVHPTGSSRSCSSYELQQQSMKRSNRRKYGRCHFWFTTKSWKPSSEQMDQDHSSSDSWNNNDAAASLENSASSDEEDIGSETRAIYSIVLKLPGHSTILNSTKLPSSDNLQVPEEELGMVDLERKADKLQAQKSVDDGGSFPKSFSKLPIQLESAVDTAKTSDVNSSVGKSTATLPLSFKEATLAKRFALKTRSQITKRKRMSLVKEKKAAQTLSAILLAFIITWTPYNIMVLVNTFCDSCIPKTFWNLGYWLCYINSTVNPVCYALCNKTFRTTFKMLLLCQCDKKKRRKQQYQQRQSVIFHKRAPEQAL", "conditions": "cited from earlier work"}, "[3]": {"molecular_target": "norepinephrine reuptake transporter (NET) (Homo sapiens, UniProt P23975)", "sequence (P23975 whole entry)": "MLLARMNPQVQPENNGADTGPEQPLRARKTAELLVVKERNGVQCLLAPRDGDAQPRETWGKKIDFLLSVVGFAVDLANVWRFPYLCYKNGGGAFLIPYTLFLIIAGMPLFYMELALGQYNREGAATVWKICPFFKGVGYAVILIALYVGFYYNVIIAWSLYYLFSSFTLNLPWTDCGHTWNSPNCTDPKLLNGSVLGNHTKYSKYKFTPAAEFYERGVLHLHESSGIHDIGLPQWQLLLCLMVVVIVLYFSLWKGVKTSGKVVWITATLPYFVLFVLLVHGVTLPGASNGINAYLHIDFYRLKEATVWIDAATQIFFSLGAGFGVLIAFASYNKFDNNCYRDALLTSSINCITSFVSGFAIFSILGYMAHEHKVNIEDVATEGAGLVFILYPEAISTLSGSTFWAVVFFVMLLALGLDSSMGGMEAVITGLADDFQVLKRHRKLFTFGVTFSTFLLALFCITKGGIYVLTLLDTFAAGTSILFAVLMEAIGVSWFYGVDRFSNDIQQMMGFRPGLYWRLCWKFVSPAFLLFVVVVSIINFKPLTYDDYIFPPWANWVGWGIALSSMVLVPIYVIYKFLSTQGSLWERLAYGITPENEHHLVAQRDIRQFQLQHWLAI", "conditions": "cited from earlier work"}, "[4]": {"molecular_target": "serotonin 5-HT1E receptor (Homo sapiens, UniProt P28566)", "sequence (P28566 whole entry)": "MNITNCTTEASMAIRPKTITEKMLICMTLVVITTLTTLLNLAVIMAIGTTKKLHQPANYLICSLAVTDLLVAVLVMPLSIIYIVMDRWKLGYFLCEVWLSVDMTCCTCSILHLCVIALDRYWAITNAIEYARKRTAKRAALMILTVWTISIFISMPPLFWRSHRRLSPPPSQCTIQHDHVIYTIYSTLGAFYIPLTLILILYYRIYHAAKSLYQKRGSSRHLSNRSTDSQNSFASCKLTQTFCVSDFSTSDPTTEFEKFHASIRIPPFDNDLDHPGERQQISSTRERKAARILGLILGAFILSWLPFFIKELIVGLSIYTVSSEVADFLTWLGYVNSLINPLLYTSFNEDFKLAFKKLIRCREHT", "conditions": "cited from earlier work"}, "5-HT2A receptor": {"molecular_target": "5-HT2A receptor (Homo sapiens, UniProt P28223)", "sequence (P28223 whole entry)": "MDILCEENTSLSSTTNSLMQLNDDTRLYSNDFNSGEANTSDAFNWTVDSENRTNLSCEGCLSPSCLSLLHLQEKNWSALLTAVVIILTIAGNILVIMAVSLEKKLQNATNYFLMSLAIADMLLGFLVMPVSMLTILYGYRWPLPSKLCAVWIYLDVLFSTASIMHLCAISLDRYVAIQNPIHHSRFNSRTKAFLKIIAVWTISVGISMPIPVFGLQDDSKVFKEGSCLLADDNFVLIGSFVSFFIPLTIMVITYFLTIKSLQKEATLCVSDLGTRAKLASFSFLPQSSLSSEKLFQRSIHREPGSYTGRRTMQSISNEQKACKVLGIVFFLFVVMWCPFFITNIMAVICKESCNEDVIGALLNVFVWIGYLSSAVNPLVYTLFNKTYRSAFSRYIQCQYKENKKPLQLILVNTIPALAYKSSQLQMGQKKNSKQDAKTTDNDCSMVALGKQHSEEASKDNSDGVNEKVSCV", "conditions": "cited from earlier work"}, "α2-adrenergic receptors": {"system": "α2-adrenergic receptors", "conditions": "cited from earlier work"}, "a1-adrenergic receptors": {"system": "a1-adrenergic receptors", "conditions": "cited from earlier work"}, "dopaminergic D1 receptor": {"molecular_target": "dopaminergic D1 receptor (Homo sapiens, UniProt P21728)", "sequence (P21728 whole entry)": "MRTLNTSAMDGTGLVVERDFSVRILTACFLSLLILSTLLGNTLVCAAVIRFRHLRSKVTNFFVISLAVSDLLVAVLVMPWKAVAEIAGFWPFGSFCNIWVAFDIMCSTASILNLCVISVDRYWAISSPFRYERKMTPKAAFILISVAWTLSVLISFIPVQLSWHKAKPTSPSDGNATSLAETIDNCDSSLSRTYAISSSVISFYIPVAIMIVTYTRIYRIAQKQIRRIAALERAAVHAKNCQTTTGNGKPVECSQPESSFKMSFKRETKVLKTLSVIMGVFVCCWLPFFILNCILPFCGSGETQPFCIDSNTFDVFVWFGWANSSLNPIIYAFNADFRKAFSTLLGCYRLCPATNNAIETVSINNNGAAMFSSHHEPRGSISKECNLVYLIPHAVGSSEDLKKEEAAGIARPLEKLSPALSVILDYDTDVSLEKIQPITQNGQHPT", "conditions": "cerebral receptors; cited from earlier work"}, "[5]": {"conditions": "cited from earlier work"}, "leptin": {"system": "leptin", "conditions": "chronic oral administration for 6 weeks; cited from earlier work"}, "dopaminergic D2 receptor": {"molecular_target": "dopaminergic D2 receptor (Homo sapiens, UniProt P14416)", "sequence (P14416 whole entry)": "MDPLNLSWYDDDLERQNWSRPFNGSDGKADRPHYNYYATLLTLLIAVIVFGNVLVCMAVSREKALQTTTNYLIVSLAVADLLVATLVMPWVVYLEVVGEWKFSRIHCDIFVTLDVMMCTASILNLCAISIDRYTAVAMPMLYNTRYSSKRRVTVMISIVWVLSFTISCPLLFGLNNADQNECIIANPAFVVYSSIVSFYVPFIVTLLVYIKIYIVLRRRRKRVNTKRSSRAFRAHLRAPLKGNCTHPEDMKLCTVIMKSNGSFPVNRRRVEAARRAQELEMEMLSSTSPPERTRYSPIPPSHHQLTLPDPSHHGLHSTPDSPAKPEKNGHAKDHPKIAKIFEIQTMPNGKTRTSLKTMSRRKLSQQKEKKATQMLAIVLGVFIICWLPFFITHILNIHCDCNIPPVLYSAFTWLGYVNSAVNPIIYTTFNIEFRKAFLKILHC", "conditions": "cerebral receptors; cited from earlier work"}, "[6]": {"conditions": "clinical trials; cited from earlier work"}, "[7]": {"conditions": "patients, cited from earlier work"}, "[8]": {"conditions": "in vivo; cited from earlier work"}, "[9]": {"conditions": "oral solution"}}, "note": "Structures can show the parent of a compound that is named as a salt."}
{"compound": "c1ccc2c(c1)N=C(N1CCNCC1)c1ccccc1S2", "note": "[N-desalkyl-quetiapine]", "values": [{"measurement": "affinity", "setting": "α1B-adrenergic receptor", "result": "moderate affinities"}, {"measurement": "affinity", "setting": "M1 muscarinic receptor", "result": "moderate affinities"}, {"measurement": "potency at the 5-HT1A receptor, fold more potent than quetiapine", "setting": "5-HT1A receptor", "result": 10, "unit": "fold"}, {"measurement": "affinity", "setting": "[1]", "result": "moderate affinities"}, {"measurement": "affinity", "setting": "M5 muscarinic receptor", "result": "moderate affinities"}, {"measurement": "affinity", "setting": "serotonin 5-HT7 receptor", "result": "moderate affinities"}, {"measurement": "affinity", "setting": "[2]", "result": "moderate affinities"}, {"measurement": "affinity", "setting": "histamine H1 receptor", "result": "high affinity"}, {"measurement": "affinity", "setting": "M3 muscarinic receptor", "result": "moderate affinities"}, {"measurement": "affinity", "setting": "[3]", "result": "moderate affinities"}, {"measurement": "avidity for inhibiting human NET, fold higher than quetiapine", "setting": "[3]; relative to quetiapine", "result": "about 100 fold"}, {"measurement": "affinity", "setting": "[4]", "result": "moderate affinities"}, {"measurement": "affinity", "setting": "5-HT2A receptor", "result": "moderate affinities"}]}
{"compound": "OCCOCCN1CCN(C2=Nc3ccccc3Sc3ccccc32)CC1", "note": "[quetiapine, 2-(2-(4-(dibenzo[b,f][1,4]thiazepin-11-yl)piperazin-1-yl)ethoxy)ethanol]", "values": [{"measurement": "affinity", "setting": "α2-adrenergic receptors", "result": "moderate affinity"}, {"measurement": "affinity", "setting": "a1-adrenergic receptors", "result": "moderate affinity"}, {"measurement": "affinity", "setting": "dopaminergic D1 receptor", "result": "major affinity"}, {"measurement": "terminal half-life time for elimination", "setting": "[5]; in vivo", "result": "about 7 hours"}, {"measurement": "Absolute bioavailability", "setting": "[5]; oral", "result": 9, "unit": "%"}, {"measurement": "increase in leptin release", "setting": "leptin", "result": "about 37%"}, {"measurement": "affinity", "setting": "dopaminergic D2 receptor", "result": "major affinity"}, {"measurement": "prolongation of the QT interval", "setting": "[6]", "result": "small insignificant prolongations"}]}
{"compound": "CCCC(CCC)C(=O)O", "note": "[valproic acid, 2-propylpentanoic acid]", "values": [{"measurement": "time to response", "setting": "[7]; acute mania", "result": "1-2 weeks"}, {"measurement": "response rate in acute mania", "setting": "[7]; placebo effect 20-30%", "result": "around 50%"}, {"measurement": "response rate in bipolar depression", "setting": "[8]", "result": "~30", "unit": "%"}]}
{"compound": "OCCOCCN1CCN(C2=Nc3ccccc3Sc3ccccc32)CC1", "note": "[quetiapine fumarate]", "values": [{"measurement": "solubility for dosing via oral gavage in rats", "setting": "[9]", "result": "not soluble enough"}]}
